Measurements from patent US5563176A (priority 1994, dated 1996).
Read-outs that look alike come from different tables or passages of the source.

Assays:
L1210 BCNU cells = assay: sensitivity of mdr lines, L1210 BCNU; assay type: cell-based; conditions: Mus musculus
KB VBL (gp170+) cells = assay: sensitivity of mdr lines, KB VBL; assay type: cell-based
8402, T-cell = assay: inhibition of thymidine incorporation after two hour exposure, 8402; assay type: cell-based; conditions: 2 h, Table 1, 8402, two hour exposure
Protocol: (§1) To assess cytotoxic effects, various concentrations of illudins were added to cultures of cells for 48 hours, then cell growth/viability was determined by trypan blue exclusion. As an alternative to 48 hour continuous exposure studies, cells were plated in liquid culture in 96 well plates, exposed to various concentrations of illudins for 2 hours, pulsed with [^3 H]-thymidine for one to two hours and harvested onto glass filters. The filter papers were added to vials containing scintillation fluid and residual radioactivity determined in a beta (scintillation) counter.
(§2) two hour exposure to the toxins (N - 3).

[1] = system: MCF7 ADR (GSH-transferase) cells; assay: cells; assay type: cell-based; conditions: Homo sapiens, NCI/ADR-RES, read-out: Sensitivity of mdr lines
[2] = system: MDA-231 parent (Breast) cells; assay: sensitivity of mdr lines, MDA-231 parent; assay type: cell-based; conditions: Homo sapiens, MDA-MB-231
[3] = system: HL60/MRI cells (human myeloid leukemia tumor cells)
tolerability in mice = conditions: for MTD at 672 h: mouse, in vivo
[4] = system: human lung adenocarcinoma MV522; conditions: in vivo
242, melanoma = assay: inhibition of thymidine incorporation after two hour exposure, 242; assay type: cell-based; conditions: 2 h; Table 1; 242, two hour exposure
Protocol: as §1, §2

[5] = system: L1210 CPA (cyclophos) cells; assay: sensitivity of mdr lines, L1210 CPA; assay type: cell-based; conditions: Mus musculus
MV522 = assay: cells; assay type: cell-based; conditions: Homo sapiens, MV522, 48 h, read-out: 48 hour IC50
KB C-1 (gp170+) cells = assay: sensitivity of mdr lines, KB C-1; assay type: cell-based; conditions: KBC-1
L1210 cells = assay: L1210 in vivo, increased life span
Protocol: In collaboration, the in vivo effects of dehydroilludin M was again studied. Initially the compound was studied against L1210 cells. […] The dehydroilludin M was then administered as a 24 hour infusion (5.0 mg/kg); the ILS was 11%. After we became aware of the presence of the energy-dependent uptake in human myelocytic cells, dehydroilludin M was screened for in vivo efficacy against a syngeneic mouse AML model using C1498 cells and a single bolus of […], 2.5 mg/kg IP, produced an ILS of 35%.

[6] = system: L1210 PAM (melphalan) cells; assay: sensitivity of mdr lines, L1210 PAM; assay type: cell-based; conditions: Mus musculus
[7] = system: Molt-4 (human T-cell leukemia) xenograft; assay: Molt-4 xenograft in athymic Balb/c nu/nu mice; assay type: in vivo; conditions: 30 μg/kg, nude mice; FIG. 5
8392 cells = assay: cells; assay type: cell-based; conditions: 48 h, read-out: 48 hour IC50
[8] = system: SL-2 leukemia/lymphoma cells; assay: SL-2 syngeneic model, increased life span; assay type: in vivo, murine
Protocol: The efficacy of dehydroilludin M was then screened in a syngeneic model using murine SL-2 cells. SL-2 leukemia/lymphoma cells are injected subcutaneously and metastasized to lymph nodes, spleen, and lungs, and drug efficacy in this model is determined by increased life span (ILS). The SL-2 cells were administered at 2.5 million cells per animal and treatment was delayed. for 7 days until the tumors were palpable. Ibis is a relatively stringent test .against established tumors and contrasts to general drug screens in the SL-2 model which normally use only 0.5 million cells and starting drug treatment at 3 days. […] When administered IV at 0.03 mg/kg, twice a week, the ILS increased to 38%.

[9] = system: L1210 DDPt (cis-plat) cells; assay: sensitivity of mdr lines, L1210 DDPt; assay type: cell-based; conditions: Mus musculus
HL-60 parent cells = assay: sensitivity of mdr lines, HL-60 parent; assay type: cell-based; conditions: Homo sapiens
CFU-GM = assay: colony formation zone size, CFU-GM; conditions: for Zone Size: CFU-GM
MDA-231, breast = assay: cells; assay type: cell-based; conditions: Homo sapiens, MDA-MB-231, 2 h
HL-60 cells = assay: cells; assay type: cell-based, human
HL-60 ADR (gp150+) cells = assay: sensitivity of mdr lines, HL-60 ADR; assay type: cell-based; conditions: Homo sapiens, HL60/ADR
547, ovarian = assay: inhibition of thymidine incorporation after two hour exposure, 547; assay type: cell-based; conditions: 2 h; Table 1; 547, two hour exposure
Protocol: as §1, §2

[10] = kinetics of the reaction with dilute HCl; assay type: physicochemical; conditions: dehydroilludin M
Source text: Consistent with the above hypothesis are the results of the kinetics of the reaction of illudin M and dehydroilludin M with dilute HCl. […] In the reaction with dehydroilludin M, no intermediate could be detected by NMR spectroscopy. Presumably it formed too slowly and is too short-lived to be detected.

[11] = system: MDA-231 3-1 (gp170+) cells; assay: sensitivity of mdr lines, MDA-231 3-1; assay type: cell-based; conditions: Homo sapiens, MDA-MB-231
L1210 = assay: zone of inhibition / colony formation, L1210

CC1=C2C(=O)C(C)(C)C=C2C(=O)[C@](C)(O)C12CC2 [Dehydroilludin M]
IC50 (L1210 BCNU cells): 100 ± 31 nM
IC50 (KB VBL (gp170+) cells): 78 ± 19 nM
IC50 (8402, T-cell): > 38000 nM
IC50 [1]: 68 ± 15 nM
IC50 [2]: 54 ± 7 nM
total tumor weight ([3]; 1 mg/kg IV, day 11): 114 ± 55 Mg
total tumor weight ([3]; 1 mg/kg IV, day 18): 883 ± 311 Mg
total tumor weight ([3]; 1 mg/kg IV, day 25): 2274 ± 992 Mg
total tumor weight ([3]; 1 mg/kg IV, day 32): 6025 ± 1772 Mg
total tumor weight ([3]; 1 mg/kg IV, day 40): 11507 ± 3707 Mg
total tumor weight ([3]; 3 mg/kg IV, day 11): 101 ± 40 Mg
total tumor weight ([3]; 3 mg/kg IV, day 18): 911 ± 309 Mg
total tumor weight ([3]; 3 mg/kg IV, day 25): 2127 ± 1092 Mg
total tumor weight ([3]; 3 mg/kg IV, day 32): 2854 ± 1260 Mg
total tumor weight ([3]; 3 mg/kg IV, day 40): 4784 ± 2303 Mg
tumor inhibition ([3]; IP twice a week, FIG. 6): dose related tumor inhibition
inhibition of tumor growth ([3]; IV twice a week, dose dependent): effective at inhibiting tumor growth
adverse effects (food or water intake, body weight) ([3]; highest amount of either drug, IV): did not display any evidence of adverse effect
toxicity to mice (tolerability in mice; 60,000 μg/kg IP twice a week): nontoxic
MTD at 672 h (tolerability in mice; ip): 60 mg/kg
MTD at 672 h (tolerability in mice; iv): 1 mg/kg
efficacy in this model [4]: markedly increased the lifespan
IC50 (242, melanoma): > 38000 nM
IC50 [5]: 38 ± 15 nM
IC50 (MV522): 313 ± 23 nM
IC50 (KB C-1 (gp170+) cells): 80 ± 18 nM
ILS (L1210 cells; 2.5 mg/kg IP daily for 5 days): 9%
ILS (L1210 cells; 24 hour infusion (5.0 mg/kg)): 11%
IC50 [6]: 73 ± 31 nM
complete regression of tumors [7]: three of five tumors underwent complete regression
IC50 (8392 cells): 269 ± 100 nM
ILS ([8]; 0.03 mg/kg IV twice a week): 38%
ILS ([8]; 30 mg/kg IP twice a week): 5%
ILS ([8]; 60 mg/kg IP twice a week): 18%
IC50 [9]: 119 ± 39 nM
IC50 (HL-60 parent cells): 163 ± 11 nM
Zone Size (CFU-GM; dilution 1/25): 200
Zone Size (CFU-GM; dilution 1/125): 100
Zone Size (CFU-GM; dilution 1/125 (repeat)): 50
Zone Size (CFU-GM; dilution 1/625): 0
effect on CFU-gm cells (CFU-GM; at concentrations inhibiting AML colony formation): no effect
IC50 (MDA-231, breast): 112 ± 17 nM
toxicity to HL-60 cells (HL-60 cells): less toxic
IC50 (HL-60 ADR (gp150+) cells): 191 ± 44 nM
IC50 (547, ovarian): > 38000 nM
half-life [10]: 46.1 h
k, first-order reaction [10]: 2×10^-4 min^1
IC50 [11]: 58 ± 11 nM
Zone Size (L1210; L1210, dilution 1/25): 400
Zone Size (L1210; L1210, dilution 1/125): 200
Zone Size (L1210; L1210, dilution 1/125 (repeat)): 300
Zone Size (L1210; L1210, dilution 1/625): 100
